What is called EC50 is the concentration needed to bring the measured effect to its halfway point.

The structures appear in SMILES notation.

We go through 20 molecules from patent publication US20220089575A1, “FARNESOID X RECEPTOR AGONISTS AND USES THEREOF” (Metacrine, Inc., priority 2017, published 2022).

The target in the experiment is T1, hFXR (Homo sapiens, UniProt Q96RI1).
T1 construct: expressed in transfected cells; host or cells: CV-1 cells
T1 sequence (Q96RI1 1-486): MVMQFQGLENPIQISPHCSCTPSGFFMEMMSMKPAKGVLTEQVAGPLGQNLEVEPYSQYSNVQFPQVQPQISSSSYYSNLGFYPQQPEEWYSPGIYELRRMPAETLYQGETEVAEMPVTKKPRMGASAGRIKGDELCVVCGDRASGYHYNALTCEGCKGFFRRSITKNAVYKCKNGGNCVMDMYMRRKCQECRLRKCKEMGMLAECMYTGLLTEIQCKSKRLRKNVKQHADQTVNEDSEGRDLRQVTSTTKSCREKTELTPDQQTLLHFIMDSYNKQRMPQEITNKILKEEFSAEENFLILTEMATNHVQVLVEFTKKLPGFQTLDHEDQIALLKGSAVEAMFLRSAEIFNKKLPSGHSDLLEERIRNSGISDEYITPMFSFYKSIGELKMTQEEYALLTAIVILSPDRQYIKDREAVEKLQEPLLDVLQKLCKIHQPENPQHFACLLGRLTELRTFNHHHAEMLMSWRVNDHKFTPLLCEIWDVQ
T1 sequence (P19793 1-462 partner): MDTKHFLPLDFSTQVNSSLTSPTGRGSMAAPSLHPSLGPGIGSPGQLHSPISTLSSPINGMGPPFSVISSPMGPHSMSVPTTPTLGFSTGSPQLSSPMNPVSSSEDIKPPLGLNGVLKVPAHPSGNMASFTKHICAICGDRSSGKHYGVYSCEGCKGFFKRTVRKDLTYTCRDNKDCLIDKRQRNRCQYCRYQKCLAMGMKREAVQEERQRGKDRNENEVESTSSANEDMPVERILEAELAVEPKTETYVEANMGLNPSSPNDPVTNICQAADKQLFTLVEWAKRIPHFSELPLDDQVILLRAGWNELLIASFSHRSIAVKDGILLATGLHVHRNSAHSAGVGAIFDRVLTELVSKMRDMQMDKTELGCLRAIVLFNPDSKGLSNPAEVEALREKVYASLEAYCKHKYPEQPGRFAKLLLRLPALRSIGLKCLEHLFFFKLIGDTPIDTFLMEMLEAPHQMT
Briefly: In Vitro FXR Assay (TK): TK-ECRE-luc reporter in transfected CV-1 cells. In kind it is cell-based. To be noted: 18 hrs, luminescence, maximum efficacy of <25% of the Fexarmine control classified as '+'. In short, it runs like this:
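CV-1 cells transiently co-transfected with hFXR, hRXR, TK-ECRE-luc and pCMX-YFP plasmids in charcoal-stripped serum medium. Serially diluted compounds added, cells incubated 18 h at 37° C, then lysed and luminescence read.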
In the case of `CN(C)c1ccc(C23CCC(CN(c4cccc(-c5cnc(C6CC6)s5)c4)C(=O)[C@H]4CC[C@H](C(=O)O)CC4)(CC2)CC3)cn1` [Compound 17.06, trans-4-((3-(2-Cyclopropylthiazol-5-yl)phenyl)((4-(6-(dimethylamino)pyridin-3-yl)bicyclo[2.2.2]octan-1-yl)methyl)carbamoyl) cyclohexanecarboxylic acid], the EC50 is not above 250 nM.
Molecule `COc1ccc(C23CCC(CN(c4cc(-c5cnc(C6CC6)s5)ccn4)C(=O)[C@H]4CC[C@H](C(=O)O)CC4)(CC2)CC3)cc1C` [Compound 17.07, trans-4-((4-(2-Cyclopropylthiazol-5-yl)pyridin-2-yl)((4-(4-methoxy-3-methylphenyl)bicyclo[2.2.2]octan-1-yl)methyl)carbamoyl) cyclohexanecarboxylic acid] showed an EC50 not above 250 nM.
Consider `COc1ccc([C@H]2CC[C@H](CN(c3cccc(-c4cnc(C5CC5)s4)c3)C(=O)[C@H]3CC[C@H](C(=O)O)CC3)CC2)nc1C` [Compound 17.08, trans-4-((3-(2-Cyclopropylthiazol-5-yl)phenyl)((trans-4-(5-methoxy-6-methylpyridin-2-yl)cyclohexyl)methyl)carbamoyl) cyclohexanecarboxylic acid], for which the EC50 was not above 250 nM.
As for `COc1ccc([C@H]2CC[C@H](CN(c3cc(-c4cnc(C5CC5)s4)ccn3)C(=O)[C@H]3CC[C@H](C(=O)O)CC3)CC2)cc1C` [Compound 17.09, trans-4-((4-(2-Cyclopropylthiazol-5-yl)pyridin-2-yl)((trans-4-(4-methoxy-3-methylphenyl)cyclohexyl)methyl)carbamoyl)cyclohexanecarboxylic acid], the EC50 was not above 250 nM.
Molecule `COc1ccc([C@H]2CC[C@H](CN(c3cc(-c4cnc(C5CC5)s4)ccn3)C(=O)[C@H]3CC[C@H](C(=O)O)CC3)CC2)nc1C` [Compound 17.10, trans-4-((4-(2-Cyclopropylthiazol-5-yl)pyridin-2-yl)((trans-4-(5-methoxy-6-methylpyridin-2-yl)cyclohexyl)methyl)carbamoyl) cyclohexanecarboxylic acid] had an EC50 of 250 to 1000 nM.
Consider `COc1ccc([C@H]2CC[C@H](CN(c3cccc(-c4cnc(C5CC5)s4)c3)C(=O)[C@H]3CC[C@H](C(=O)O)CC3)CC2)cc1C#N` [Compound 17.11, trans-4-(((trans-4-(3-Cyano-4-methoxyphenyl)cyclohexyl)methyl)(3-(2-4-cyclopropylthiazol-5-yl)phenyl)carbamoyl)cyclohexanecarboxylic acid], for which the EC50 was not above 250 nM.
As for `COc1ccc([C@H]2CC[C@H](CN(c3cccc(-c4cnc(C5CC5)s4)c3)C(=O)[C@H]3CC[C@H](C(=O)O)CC3)CC2)nc1C#N` [Compound 17.12, trans-4-(((trans-4-(6-Cyano-5-methoxypyridin-2-yl)cyclohexyl)methyl)(3-(2-cyclopropylthiazol-5-yl)phenyl)carbamoyl) cyclohexanecarboxylic acid], the EC50 is not above 250 nM.
As to `COc1ccc([C@H]2CC[C@H](CN(c3cccc(-c4cnn(C5CC5)c4)c3)C(=O)[C@H]3CC[C@H](C(=O)O)CC3)CC2)cc1C` [Compound 17.13, trans-4-((3-(1-Cyclopropyl-1H-pyrazol-4-yl)phenyl)((trans-4-(4-methoxy-3-methylphenyl)cyclohexyl)methyl)carbamoyl)cyclohexanecarboxylic acid], the EC50 was not above 250 nM.
`CN(C)c1ccc([C@H]2CC[C@H](CN(c3cccc(-c4cnn(C5CC5)c4)c3)C(=O)[C@H]3CC[C@H](C(=O)O)CC3)CC2)cn1` [Compound 17.14, trans-4-((3-(1-Cyclopropyl-1H-pyrazol-4-yl)phenyl)((trans-4-(6-(dimethylamino)pyridin-3-yl)cyclohexyl)methyl)carbamoyl) cyclohexanecarboxylic acid] returned an EC50 not above 250 nM.
Take `COc1ccc([C@H]2CC[C@H](CN(c3cccc(-c4cnn(C5CC5)c4)c3)C(=O)[C@H]3CC[C@H](C(=O)O)CC3)CC2)cc1Cl` [Compound 17.15, trans-4-(((trans-4-(3-Chloro-4-methoxyphenyl)cyclohexyl)methyl)(3-(1-cyclopropyl-1H-pyrazol-4-yl)phenyl)carbamoyl) cyclohexanecarboxylic acid]: the EC50 is not above 250 nM.
Molecule `Cn1nc(F)c2cc([C@H]3CC[C@H](CN(c4cccc(-c5cnn(C6CC6)c5)c4)C(=O)[C@H]4CC[C@H](C(=O)O)CC4)CC3)ccc21` [Compound 17.16, trans-4-((3-(1-Cyclopropyl-1H-pyrazol-4-yl)phenyl)((trans-4-(3-fluoro-1-methyl-1H-indazol-5-yl)cyclohexyl)methyl)carbamoyl) cyclohexanecarboxylic acid] had an EC50 not above 250 nM.
The molecule `COc1ccc(C23CCC(CN(c4cccc(-c5cnn(C6CC6)c5)c4)C(=O)[C@H]4CC[C@H](C(=O)O)CC4)(CC2)CC3)cc1C` [Compound 17.17, trans-4-((3-(1-Cyclopropyl-1H-pyrazol-4-yl)phenyl)((4-(4-methoxy-3-methylphenyl)bicyclo[2.2.2]octan-1-yl)methyl)carbamoyl) cyclohexanecarboxylic acid] registered an EC50 not above 250 nM.
Take `COc1ccc([C@H]2CC[C@H](CN(c3cccc(-c4cnn(C5CC5)c4)c3)C(=O)[C@H]3CC[C@H](C(=O)O)CC3)CC2)nc1C` [Compound 17.18, trans-4-((3-(1-Cyclopropyl-1H-pyrazol-4-yl)phenyl)((trans-4-(5-methoxy-6-methylpyridin-2-yl)cyclohexyl)methyl)carbamoyl) cyclohexanecarboxylic acid]: the EC50 was in the range of 250 to 1000 nM.
Take `COc1ccc(C23CCC(CN(c4cc(-c5cnn(C6CC6)c5)ccn4)C(=O)[C@H]4CC[C@H](C(=O)O)CC4)(CC2)CC3)cc1C` [Compound 17.19, trans-4-((4-(1-Cyclopropyl-1H-pyrazol-4-yl)pyridin-2-yl)((4-(4-methoxy-3-methylphenyl)bicyclo[2.2.2]octan-1-yl)methyl)carbamoyl) cyclohexanecarboxylic acid]: the EC50 was not above 250 nM.
The figure for `COc1ccc([C@H]2CC[C@H](CN(c3cc(-c4cnn(C5CC5)c4)ccn3)C(=O)[C@H]3CC[C@H](C(=O)O)CC3)CC2)cc1C` [Compound 17.20, trans-4-((4-(1-Cyclopropyl-1H-pyrazol-4-yl)pyridin-2-yl)((trans-4-(4-methoxy-3-methylphenyl)cyclohexyl)methyl)carbamoyl)cyclohexanecarboxylic acid] is not above 250 nM.
As for `COc1ccc([C@H]2CC[C@H](CN(c3cc(-c4cnn(C5CC5)c4)ccn3)C(=O)[C@H]3CC[C@H](C(=O)O)CC3)CC2)nc1C` [Compound 17.21, trans-4-((4-(1-Cyclopropyl-1H-pyrazol-4-yl)pyridin-2-yl)((trans-4-(5-methoxy-6-methylpyridin-2-yl)cyclohexyl)methyl)carbamoyl) cyclohexanecarboxylic acid], the half-maximal effective concentration (EC50) was not below 1000 nM.
In the case of `COc1ccc([C@H]2CC[C@H](CN(c3cccc(-c4cnn(C5CC5)c4)c3)C(=O)[C@H]3CC[C@H](C(=O)O)CC3)CC2)cc1C#N` [Compound 17.22, trans-4-(((trans-4-(3-Cyano-4-methoxyphenyl)cyclohexyl)methyl)(3-(1-cyclopropyl-1H-pyrazol-4-yl)phenyl)carbamoyl)cyclohexanecarboxylic acid], the EC50 was not above 250 nM.
Turning to `COc1ccc([C@H]2CC[C@H](CN(c3cc(-c4cnn(C5CC5)c4)ccn3)C(=O)[C@H]3CC[C@H](CC(=O)O)CC3)CC2)nc1C` [Compound 17.23, 2-(trans-4-((4-(1-Cyclopropyl-1H-pyrazol-4-yl)pyridin-2-yl)((trans-4-(5-methoxy-6-methylpyridin-2-yl)cyclohexyl)methyl)carbamoyl)cyclohexyl)acetic acid], the EC50 fell in the range of 250 to 1000 nM.
For `COc1ccc([C@H]2CC[C@H](CN(c3cccc(-c4cnn(C5CC5)c4)c3)C(=O)[C@H]3CC[C@H](CC(=O)O)CC3)CC2)nc1C` [Compound 17.24, 2-(trans-4-((3-(1-Cyclopropyl-1H-pyrazol-4-yl)phenyl)((trans-4-(5-methoxy-6-methylpyridin-2-yl)cyclohexyl)methyl)carbamoyl)cyclohexyl)acetic acid], the EC50 was not above 250 nM.
In turn, `COc1ccc([C@H]2CC[C@H](CN(c3cc(-c4cnn(C(C)C)c4)ccn3)C(=O)[C@H]3CC[C@H](CC(=O)O)CC3)CC2)nc1C` [Compound 17.25, 2-(trans-4-((4-(1-Isopropyl-1H-pyrazol-4-yl)pyridin-2-yl)((trans-4-(5-methoxy-6-methylpyridin-2-yl)cyclohexyl)methyl)carbamoyl)cyclohexyl) acetic acid] yielded an EC50 not above 250 nM.
